Tests used:
Trpm4−/− EAE mice = test: EAE clinical disability scores in Trpm4-/- mice treated with glibenclamide; format: in vivo; settings: 10 μg daily i.p. from day 8, vs DMSO control
WT EAE mice [1] = test: Immunohistochemical count of axons (SMI 31/SMI 32) and neuronal somata (NeuN) in cervical spinal cord of EAE mice; format: in vivo; settings: 30 days post immunization, vs vehicle control
TRPM4 = TRPM4 (Homo sapiens, UniProt Q8TD43); settings: reported by Damien et al. 2007; Becerra et al. 2011; cited from earlier work
WT EAE mice [2] = test: EAE clinical disability scores, MOG35-55-immunized mice treated with glibenclamide; format: in vivo; settings: 10 μg daily i.p. from first clinical symptoms (day 8), vs vehicle (DMSO) control, P<0.05

Chain of TRPM4 (Q8TD43 whole entry, species assumed): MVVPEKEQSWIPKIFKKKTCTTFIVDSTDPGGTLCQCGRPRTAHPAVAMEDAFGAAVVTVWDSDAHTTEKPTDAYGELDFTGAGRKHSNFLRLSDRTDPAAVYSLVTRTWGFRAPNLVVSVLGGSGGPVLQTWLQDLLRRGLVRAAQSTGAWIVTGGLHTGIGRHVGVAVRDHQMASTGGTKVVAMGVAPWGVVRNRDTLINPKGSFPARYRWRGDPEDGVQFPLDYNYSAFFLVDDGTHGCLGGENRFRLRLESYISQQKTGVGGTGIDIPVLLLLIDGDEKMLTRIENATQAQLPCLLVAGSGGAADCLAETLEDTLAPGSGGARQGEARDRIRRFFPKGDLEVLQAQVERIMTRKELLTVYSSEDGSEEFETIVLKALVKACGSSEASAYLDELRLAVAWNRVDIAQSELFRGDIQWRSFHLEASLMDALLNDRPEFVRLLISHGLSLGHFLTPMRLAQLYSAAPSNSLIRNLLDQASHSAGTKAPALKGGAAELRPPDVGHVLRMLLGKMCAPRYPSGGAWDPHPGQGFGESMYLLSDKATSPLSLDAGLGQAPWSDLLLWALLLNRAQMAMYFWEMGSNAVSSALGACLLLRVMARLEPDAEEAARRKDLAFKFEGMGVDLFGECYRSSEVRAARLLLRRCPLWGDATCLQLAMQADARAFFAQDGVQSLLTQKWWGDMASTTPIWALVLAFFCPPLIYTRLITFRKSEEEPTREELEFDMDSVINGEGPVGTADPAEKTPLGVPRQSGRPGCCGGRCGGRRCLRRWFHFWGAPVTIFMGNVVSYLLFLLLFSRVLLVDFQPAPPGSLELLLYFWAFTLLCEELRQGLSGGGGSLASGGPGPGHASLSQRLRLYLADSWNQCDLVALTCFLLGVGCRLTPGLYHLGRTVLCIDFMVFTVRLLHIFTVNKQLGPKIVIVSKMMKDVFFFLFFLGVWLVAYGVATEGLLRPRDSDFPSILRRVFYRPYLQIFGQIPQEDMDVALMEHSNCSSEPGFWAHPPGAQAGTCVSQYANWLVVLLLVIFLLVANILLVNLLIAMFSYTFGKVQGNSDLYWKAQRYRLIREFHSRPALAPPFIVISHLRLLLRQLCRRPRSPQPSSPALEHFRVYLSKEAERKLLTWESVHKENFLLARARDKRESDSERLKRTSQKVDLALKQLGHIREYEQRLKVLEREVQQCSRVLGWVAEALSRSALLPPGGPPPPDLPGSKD

COc1ccc(Cl)cc1C(=O)NCCc1ccc(S(=O)(=O)NC(=O)NC2CCCCC2)cc1 [glibenclamide]
clinical disability (mean clinical disability score) (Trpm4−/− EAE mice): no additional clinical improvement | number of axons in the corticospinal tract (WT EAE mice [1]; P<0.01): preservation of axons | number of axons in the dorsal column (WT EAE mice [1]; P<0.05): preservation of axons | neuronal cell body loss in the gray matter of the spinal cord (WT EAE mice [1]; did not reach statistical significance): slightly diminished | TRPM4 inhibition (TRPM4): effectively inhibit TRPM4 | clinical disability (mean clinical disability score) (WT EAE mice [2]): ameliorated disability
